Consider seven molecules from ChEMBL document CHEMBL1128271, “Computer-aided molecular modeling, synthesis, and biological evaluation of 8-(benzyloxy)-2-phenylpyrazolo[4,3-c]quinoline as a novel benzodiazepine receptor agonist ligand” (J Med Chem, 1995).

Structures are written as SMILES. A value given as a limit tells only on which side of the number the result lay.

The assay has as its target GABA-A receptor; anion channel. Nature of the assay: Inhibition of [3H]-Ro- 15-1788 binding to GABA-A benzodiazepine receptor in rat brain membrane. The assay is classed as cell membranes.
The term IC50 denotes the concentration that gives 50% inhibition. The molecule `O=c1c2cnc3c(OCc4ccccc4)cccc3c2[nH]n1-c1ccccc1` gave a 50% inhibitory concentration (IC50) of over 1 µM.
In the case of `O=c1c2cnc3ccc(OCc4ccccc4)cc3c2[nH]n1-c1ccc(Cl)cc1` it was 0.0523 µM; in that of `COc1cccc2ncc3c(=O)n(-c4ccccc4)[nH]c3c12`, 0.00068 µM.
With `O=c1c2cnc3cc(OCc4ccccc4)ccc3c2[nH]n1-c1ccccc1`, the IC50 was over 1 µM.
Consider `O=c1c2cnc3cccc(OCc4ccccc4)c3c2[nH]n1-c1ccccc1`, for which the IC50 is over 1000 µM.
In turn, `O=c1c2cnc3cccc(O)c3c2[nH]n1-c1ccccc1` gave an IC50 of 0.00074 µM.
With `O=c1c2cnc3ccc(OCc4ccccc4)cc3c2[nH]n1-c1ccccc1`, the IC50 was determined as 0.0037 µM.
